Measured values published in publication PMC6423188, “HYNIC and DOMA conjugated radiolabeled bombesin analogs as receptor-targeted probes for scintigraphic detection of breast tumor” (EJNMMI Research, 2019).
pIC50: −log10 of the molar value. Where a SMILES comes first, the peptide text is derived from it.

Experiments:
GRPR = target: T1, GRPR (Homo sapiens, UniProt P30550); experiment: In vitro receptor binding assay, competition with 99mTc-BNS; settings: unlabeled analogs, radioligand 99mTc-BNS
T1 construct: endogenous in cells; host or cells: MDA-MB-231 human breast cancer cells (from NCCS, Pune)
Protocol: One day prior to the assay, cells at the confluence were placed in 12-well plates. […] Inhibitory assays were done on GRPR-expressing MDA-MB-231 human breast cancer cells using the standard procedure with modifications. […] After 1-h incubation, cells were washed twice with cold PBS. Receptor bound radioactivity was recovered by solubilizing the cells with 400 μL 1 N NaOH at 37 °C. Binding activities were evaluated in the gamma counter. IC50 (the best-fit 50% inhibitory concentration) values were determined using nonlinear regression.
It may be mentioned that non-radioactive Re complex can be used in place of its unlabeled ligand to determine the binding affinity after complexation reaction. This is being proposed to use the non-radioactive Re complex in place of its unlabeled ligand to determine the binding affinity after complexation in future studies.

MDA-MB-231 cells = experiment: Western blot analysis; assay type: cell-based, human; settings: 24 h, BN3, BN4 7.5 and 5 pM, BNS 7.5 pM
Text: After washing in ice-cold PBS, proteins were extracted from cells with lysis buffer containing 100 mmol/L Tris-HCl, pH 8.0, 150 mmol/L NaCl, 1% sodium dodecyl sulfate, 10% glycerol, 1% Triton X, 5 mmol/L ethylenediaminetetraacetic acid, 1 mmol/L phenyl methyl sulfonyl fluoride, 10 mmol/L sodium fluoride, 1 mmol/L sodium orthovanadate, 1 mmol/L-glycerophosphate, and protease inhibitor cocktail tablets (Roche, Switzerland). Total proteins from cell were also extracted by using standard procedure. Protein concentrations were determined by Bradford reagent (BioRad, USA). Extracted proteins were separated by sodium dodecyl sulphate polyacrylamide gel electrophoresis and transferred to polyvinylidene fluoride (PVDF) membranes. Membranes blocking were done by 5% nonfat milk in Tris-buffered saline containing 0.1% polysorbate-20 and incubated with primary antibodies GRPR (Abcam, USA), VEGF, PCNA, Phospho-p38, and HIF-1α (Santa Cruz Biotechnology) for overnight at 4 °C. β-actin antibodies (Millipore) were used to confirm equal protein loading. Detection of primary antibodies was done by alkaline phosphatase conjugated secondary antibodies (1:5000 dilutions) and the detection was done by colorimetry using NBT-BCIP as substrate (Sigma-Aldrich). Detection of GRPR primary antibody was done by horseradish peroxidase conjugated secondary antibodies. The level of β-actin was used as a loading control and was not altered under any of the condition used.

MDA-MB-231 tumor = experiment: Angiogenic and proliferative markers in tumor (IHC); assay type: in vivo, mouse; settings: tumor-bearing mice treated i.v. every day for 2 weeks
Protocol: Tumor-bearing mice were intravenously treated with BN4 peptide at every day for 2 weeks as BN4 has shown the highest affinity and stability to GRP with compare to other analogs. Mice were sacrificed and tumor tissue sections were used for immunohistochemical (IHC) analyses. IHC was performed by the aforementioned methods with the primary antibodies such as anti-CD31 and anti-Ki67 (Abcam, Cambridge, Massachusetts, USA) to determine the expression of angiogenic and proliferative markers in the tumor.

T1 sequence (P30550 whole entry): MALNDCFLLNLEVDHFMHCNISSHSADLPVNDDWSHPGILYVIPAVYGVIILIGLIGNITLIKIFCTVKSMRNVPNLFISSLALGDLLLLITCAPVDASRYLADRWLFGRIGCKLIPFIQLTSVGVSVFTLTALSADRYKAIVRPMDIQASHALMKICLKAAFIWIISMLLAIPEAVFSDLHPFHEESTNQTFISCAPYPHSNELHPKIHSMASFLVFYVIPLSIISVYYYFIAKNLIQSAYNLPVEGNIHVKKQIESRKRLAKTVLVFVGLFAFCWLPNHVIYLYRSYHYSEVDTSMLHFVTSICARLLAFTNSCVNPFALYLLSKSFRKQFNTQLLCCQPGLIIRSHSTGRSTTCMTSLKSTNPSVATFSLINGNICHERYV

Row | Structure (SMILES) | pIC50 (GRPR; GRP receptor expressing MDA-MB-231 cells, values printed in Fig. 4) | level of GRPR (Western blot) (MDA-MB-231 cells) | pIC50 (GRPR; MDA-MB-231 cells/membranes, 1 h, 37 °C) | expression of CD31 and Ki67 in tumor sections (IHC) (MDA-MB-231 tumor)
1 | CSCC[C@H](NC(=O)[C@@H](Cc1ccc(O)cc1)NC(=O)[C@H](Cc1c[nH]cn1)NC(=O)CNC(=O)[C@@H](NC(=O)[C@H](C)NC(=O)[C@H](Cc1c[nH]c2ccccc12)NC(=O)[C@H](CCC(N)=O)NC(=O)[C@H](CC(=O)O)NC(=O)[C@@H]1CCCN1C(=O)c1ccc(NN)nc1)C(C)C)C(N)=O [BN2, HYNIC-Pro-Asp-[D-Tyr^13Met^14] BN(7-14)NH2] (HELM PEPTIDE1{[NNc1ccc(C(=O)[*:2])cn1].P.D.Q.W.A.V.G.H.[dY].M.[am]}$$$$V2.0) | 8.33 | – | – | –
2 | CCCC[C@H](NC(=O)[C@@H](CC1CCCCC1)NC(=O)[C@H](Cc1c[nH]cn1)NC(=O)[C@H](CCCCN)NC(=O)[C@@H](NC(=O)[C@H](C)NC(=O)[C@H](Cc1c[nH]c2ccccc12)NC(=O)[C@H](CCC(N)=O)NC(=O)[C@H](CC(N)=O)NC(=O)[C@H](CC(=O)O)NC(=O)c1ccc(NN)nc1)C(C)C)C(N)=O [BN3, HYNIC-Asp-Asn-[Lys^5-D-CHAla^13Nle^14]BN(7-14)-NH2] (HELM PEPTIDE1{[NNc1ccc(C(=O)[*:2])cn1].D.N.Q.W.A.V.K.H.[O=C([C@@H](CC1CCCCC1)N[*:1])[*:2]].[Nle].[am]}$$$$V2.0) | – | significantly increased level of GRPR | – | –
3 | CCCC[C@H](NC(=O)[C@@H](Cc1ccc(O)cc1)NC(=O)[C@H](Cc1c[nH]cn1)NC(=O)[C@@H]1CCCN1C(=O)[C@@H](NC(=O)[C@H](C)NC(=O)[C@H](Cc1c[nH]c2ccccc12)NC(=O)[C@H](CCC(N)=O)NC(=O)CCCNC(=O)CN1CCNCCNCCNCC1)C(C)C)C(N)=O [BN4, DOMA-GABA-[Pro^5-D-Tyr^13Nle^14]-BN(7-14)-NH2] (HELM PEPTIDE1{[O=C(CN1CCNCCNCCNCC1)[*:2]].[O=C(CCCN[*:1])[*:2]].Q.W.A.V.P.H.[dY].[Nle].[am]}$$$$V2.0) | – | significantly increased level of GRPR | 8.50 | enhanced expression of CD31, Ki67
4 | CSCC[C@H](NC(=O)[C@H](CC(C)C)NC(=O)[C@H](Cc1c[nH]cn1)NC(=O)CNC(=O)[C@@H](NC(=O)[C@H](C)NC(=O)[C@H](Cc1c[nH]c2ccccc12)NC(=O)[C@@H](N)CCC(N)=O)C(C)C)C(N)=O [BNS, reference compound] | – | significantly increased level of GRPR | – | –
